The record followed here is patent publication US5292729A, “II-bond aromatic vitamin chelates” (Albion International, Inc., priority 1992, dated 1994).

Data set [1] is described as follows: 65Zn isotope levels in urine and tissues of sacrificed rats. Here is the method: (§1) The chelate thus prepared was diluted such that a 5 μl dose contained about 0.03 mg Zn and 15 μcuries of ^65 Zn activity. This dose, when administered to a standard laboratory rat weighing 150±25 gms, closely approximates the RDA of 15 mg Zn for a human being weighing about 70 kg.
(§2) Ten Sprague Dawley rats, weighing 190±10 grams each were divided into two groups of five rats. Five rats were designated the test group and the other five rats the control group.
(§3) No surgery was performed as all animals were given light doses of nembutal (40 mg/kg) to improve ease of handling and minimize injury during lavage and bloodletting.
The rats used in Example 22 were sacrificed after completion of the testing and the urine, liver, muscle, kidney, brain and spleens from the animals in each grouping were collected for comparative ^65 zinc isotope levels.

Data set [2] in a line: 65Zn level in blood of rats after oral gavage, scintillation count. Conditions: oral 0.03 mg Zn, 15 μcuries 65Zn, mean ± standard deviation. The method, then:
as §1, §2, §3
Beginning 30 minutes after dosing and continuing at 30 minute intervals up to a period of 3 hours following dosing, 0.1 ml of blood was withdrawn from rats in both the test and control groups. The blood was then analyzed for ^65 Zn by scintillation count.

With `[Cl-].[Cl-].[Zn+2]` [ZnCl2], in data set [1] (brain, after 3 hour test), the 65Zn in brain stood at 0 CCPM. This compound came in with a 65Zn in kidney in data set [1] (kidney, after 3 hour test) of 24 CCPM. The compound further had a 65Zn in liver in data set [1] (liver, after 3 hour test) of 50 CCPM. In data set [1] (muscle, after 3 hour test), this compound showed a 65Zn in muscle of 0 CCPM. Also, the 65Zn in spleen in data set [1] (spleen, after 3 hour test) amounted to 16 CCPM. Further, the “excretion of zinc compared with the chelated form” value in data set [1] (urine) is listed as “excreted more readily”. The same compound gave a 65Zn in urine in data set [1] (urine, after 3 hour test) of 38 CCPM. Besides, the 65Zn in blood in data set [2] (0.5 hrs after dosing) was 210 ± 11 CCPM; in data set [2] (1.0 hrs after dosing), 226 ± 14 CCPM; in data set [2] (1.5 hrs after dosing), 212 ± 26 CCPM; in data set [2] (2.5 hrs after dosing) it was 206 ± 8 CCPM; in data set [2] (3.0 hrs after dosing) it was 207 ± 8 CCPM.
